Laboratory results from patent publication US20260256792A1, “TREATMENT OF CHRONIC SPONTANEOUS URTICARIA BY ADMINISTERING (R)-2-[3-[4-AMINO-3-(2-FLUORO-4-PHENOXY-PHENYL)PYRAZOLO[3,4-D]PYRIMIDIN-1-YL]PIPERIDINE-1-CARBONYL]-4-METHYL-4-[4-(OXETAN-3-YL)PIPERAZIN-1-YL]PENT-2-ENENITRILE” (priority 2023, published 2026).

System: moderate-to-severe chronic spontaneous urticaria (CSU)
Experiment: Phase 2 CSU study: hives severity score over 7 days (HSS7)
Format: in vivo, human
Design: key to HSS7 Change from baseline, Median / HSS7, Median / HSS7, Max / HSS7 Change from baseline, Q1 / HSS7 Change from baseline, Q3 / HSS7 Change from baseline, Max: 7-day sum of daily hive scores, each 0 = none to 3 = >50 hives
Excerpt: The study comprises a 12 week, randomized, double-blind, placebo-controlled, multi-center, dose-ranging efficacy and safety phase, followed by a 40 week open label extension (OLE) phase (see FIG. 1).
The study consists of three phases and an optional OLE phase.
The UAS is a validated PRO measure. The daily UAS is the sum of the daily Hive Severity Score (HSS, ranging from 0=None to 3=more than 50 hives) and the daily Itch Severity Score (ISS, ranging from 0=None to 3=intense), the 2 key urticaria signs and symptoms which are wheals and itch. The daily UAS scores range from 0 to 6 point/day. Daily UAS scores are summed over 7-day period to create the UAS7, ranging from 0 to 42, and are composed of the HSS7 and ISS7 components. […] Patients were to complete the UAS using the e-diary. The e-diary was to be used once daily on the same time of each day recording of participant's answers to the urticaria activity score over 7 days (UAS7) questionnaire. For participants who entered the OLE phase, their answers to the UAS7 questionnaire were also to be collected from Week 20 to Week24 and from Week 48 to Week 52.
The following secondary endpoints were to be analyzed using the same approach as for the primary endpoint: • Change from baseline in UAS7 at Week 4 • Change from baseline in UAS7 at Week 12 (for US and US reference countries) • Change from baseline in ISS7 at Week 12 (except US and US reference countries) • Change from baseline in HSS7 at Week 12

[1] = 400 mg BID, Week 11, ITT Population
[2] = 400 mg BID, Week 12, ITT population
[3] = 400 mg BID, Week 12, Omalizumab-Naïve Population
[4] = 400 mg QPM, Omalizumab-Naïve Population, last block under Week 12, double-blind period, WOCF imputation
[5] = 400 mg QPM, Week 1, ITT Population
[6] = 400 mg QPM, Week 1, Omalizumab-Naïve Population
[7] = 400 mg QPM, Week 2, ITT Population
[8] = 400 mg QPM, Week 2, Omalizumab-Naïve Population
[9] = 400 mg QPM, Week 3, ITT Population
[10] = 400 mg QPM, Week 3, Omalizumab-Naïve Population
[11] = 400 mg QPM, Week 4, ITT population
[12] = 400 mg QPM, Week 4, Omalizumab-Naïve Population
[13] = 400 mg QPM, Week 5, ITT Population
[14] = 400 mg QPM, Week 5, Omalizumab-Naïve Population
[15] = 400 mg QPM, Week 6, ITT Population
[16] = 400 mg QPM, Week 6, Omalizumab-Naïve Population
[17] = 400 mg QPM, Week 7, ITT Population
[18] = 400 mg QPM, Week 7, Omalizumab-Naïve Population
[19] = 400 mg QPM, Week 8, ITT population
[20] = 400 mg QPM, Week 8, Omalizumab-Naïve Population
[21] = 400 mg QPM, Week 9, ITT Population

CC(C)(C=C(C#N)C(=O)N1CCC[C@@H](n2nc(-c3ccc(Oc4ccccc4)cc3F)c3c(N)ncnc32)C1)N1CCN(C2COC2)CC1 [rilzabrutinib, (R)-2-[3-[4-amino-3-(2-fluoro-4-phenoxy-phenyl)pyrazolo[3,4-d]pyrimidin-1-yl]piperidine-1-carbonyl]-4-methyl-4-[4-(oxetan-3-yl)piperazin-1-yl]pent-2-enenitrile]
HSS7 % Change from baseline LS Mean (SE) [1]: −49.14 (7.06) % | HSS7 Change difference for rilzabrutinib vs.placebo LS Mean (95% CI) [1]: −2.46 (−5.05, 0.13) | HSS7 Change from baseline LS Mean (SE) [1]: −7.01 (0.99) | HSS7 Postbaseline Mean (SD) [1]: 6.79 (7.06) | HSS7 Postbaseline Mean (SD) (400 mg BID, Week 11, Omalizumab-Naïve Population): 7.13 (7.07) | HSS7 Postbaseline Mean (SD) (400 mg BID, Week 11, Omalizumab-Naïve Population with Outlier Removed from Analysis): 7.13 (7.07) | HSS7 % Change difference for rilzabrutinib vs.placebo LS Mean (95% CI) [2]: −19.13 % | HSS7 % Change from baseline LS Mean (SE) [2]: −46.86 (7.34) % | HSS7 Change difference for rilzabrutinib vs.placebo LS Mean (95% CI) [2]: −1.89 (−4.58, 0.80) | HSS7 Change from baseline LS Mean (SE) [2]: −6.78 (1.02) | HSS7 Postbaseline Mean (SD) [2]: 7.08 (7.32) | HSS7 Change difference for rilzabrutinib vs.placebo LS Mean (95% CI) [3]: −2.12 (−4.97, 0.73) | HSS7 Change from baseline LS Mean (SE) [3]: −6.52 (1.07) | HSS7 Postbaseline Mean (SD) [3]: 7.52 (7.21) | HSS7 Postbaseline Mean (SD) (400 mg BID, Week 12, Omalizumab-Naïve Population with Outlier Removed from Analysis): 7.52 (7.21) | HSS7, Max [4]: 21.0 | HSS7, Min [4]: 0.0 | HSS7 Change from baseline, Max [4]: 1.5 | HSS7 Change from baseline, Mean (SD) [4]: −9.87 (8.34) | HSS7 Change from baseline, Median [4]: −12.00 | HSS7 Change from baseline, Min [4]: −19.6 | HSS7 Change from baseline, Q1 [4]: −18.00 | HSS7 Change from baseline, Q3 [4]: 0.00 | HSS7 Percent change from baseline, Max [4]: 9.4% | HSS7 Percent change from baseline, Mean (SD) [4]: −64.85 (48.75) percent | HSS7 Percent change from baseline, Median [4]: −93.33% | HSS7 Percent change from baseline, Q1 [4]: −100.00% | HSS7 Percent change from baseline, Q3 [4]: 0.00% | HSS7 % Change difference for rilzabrutinib vs.placebo LS Mean (95% CI) [5]: −16.53 % | HSS7 % Change from baseline LS Mean (SE) [5]: −25.22 (5.61) % | HSS7 Change difference for rilzabrutinib vs.placebo LS Mean (95% CI) [5]: −2.14 (−4.59, 0.31) | HSS7 Change from baseline LS Mean (SE) [5]: −3.98 (0.76) | HSS7 Postbaseline Mean (SD) [5]: 10.76 (4.83) | HSS7 % Change difference for rilzabrutinib vs.placebo LS Mean (95% CI) [6]: −17.05 % | HSS7 % Change from baseline LS Mean (SE) [6]: −24.49 (5.76) % | HSS7 Change difference for rilzabrutinib vs.placebo LS Mean (95% CI) [6]: −2.16 (−4.69, 0.37) | HSS7 Change from baseline LS Mean (SE) [6]: −3.79 (0.77) | HSS7 Postbaseline Mean (SD) [6]: 10.73 (4.90) | HSS7 Postbaseline Mean (SD) (400 mg QPM, Week 1, Omalizumab-Naïve Population with Outlier Removed from Analysis): 10.73 (4.90) | HSS7 % Change difference for rilzabrutinib vs.placebo LS Mean (95% CI) [7]: −7.67 (−23.03, 7.68) % | HSS7 % Change from baseline LS Mean (SE) [7]: −24.23 (5.75) % | HSS7 Change difference for rilzabrutinib vs.placebo LS Mean (95% CI) [7]: −0.95 (−3.07, 1.17) | HSS7 Change from baseline LS Mean (SE) [7]: −3.87 (0.80) | HSS7 Postbaseline Mean (SD) [7]: 10.96 (4.91) | HSS7 % Change difference for rilzabrutinib vs.placebo LS Mean (95% CI) [8]: −8.35 (−24.24, 7.54) % | HSS7 % Change from baseline LS Mean (SE) [8]: −23.62 (5.84) % | HSS7 Postbaseline Mean (SD) [8]: 10.90 (4.97) | HSS7 Postbaseline Mean (SD) (400 mg QPM, Week 2, Omalizumab-Naïve Population with Outlier Removed from Analysis): 10.90 (4.97) | HSS7 % Change difference for rilzabrutinib vs.placebo LS Mean (95% CI) [9]: −9.55 (−25.43, 6.33) % | HSS7 % Change from baseline LS Mean (SE) [9]: −28.70 (5.96) % | HSS7 Change difference for rilzabrutinib vs.placebo LS Mean (95% CI) [9]: −0.94 (−3.15, 1.28) | HSS7 Change from baseline LS Mean (SE) [9]: −4.44 (0.83) | HSS7 Postbaseline Mean (SD) [9]: 10.40 (4.90) | HSS7 % Change difference for rilzabrutinib vs.placebo LS Mean (95% CI) [10]: −10.40 % | HSS7 % Change from baseline LS Mean (SE) [10]: −28.10 (6.12) % | HSS7 Postbaseline Mean (SD) [10]: 10.41 (4.97) | HSS7 Postbaseline Mean (SD) (400 mg QPM, Week 3, Omalizumab-Naïve Population with Outlier Removed from Analysis): 10.41 (4.97) | HSS7 % Change difference for rilzabrutinib vs.placebo LS Mean (95% CI) [11]: −7.88 (−24.05, 8.29) % | HSS7 % Change from baseline LS Mean (SE) [11]: −26.58 (6.02) % | HSS7 Change difference for rilzabrutinib vs.placebo LS Mean (95% CI) [11]: −0.78 (−3.03, 1.46) | HSS7 Change from baseline LS Mean (SE) [11]: −4.23 (0.84) | HSS7 % Change difference for rilzabrutinib vs.placebo LS Mean (95% CI) [12]: −10.20 % | HSS7 % Change from baseline LS Mean (SE) [12]: −26.07 (6.19) % | HSS7 % Change difference for rilzabrutinib vs.placebo LS Mean (95% CI) [13]: −2.80 % | HSS7 % Change from baseline LS Mean (SE) [13]: −31.95 (5.91) % | HSS7 Change difference for rilzabrutinib vs.placebo LS Mean (95% CI) [13]: −0.33 (−2.64, 1.97) | HSS7 Change from baseline LS Mean (SE) [13]: −4.97 (0.86) | HSS7 Postbaseline Mean (SD) [13]: 9.59 (5.07) | HSS7 % Change difference for rilzabrutinib vs.placebo LS Mean (95% CI) [14]: −0.56 % | HSS7 % Change from baseline LS Mean (SE) [14]: −31.12 (6.01) % | HSS7 Postbaseline Mean (SD) [14]: 9.63 (5.13) | HSS7 Postbaseline Mean (SD) (400 mg QPM, Week 5, Omalizumab-Naïve Population with Outlier Removed from Analysis): 9.63 (5.13) | HSS7 % Change difference for rilzabrutinib vs.placebo LS Mean (95% CI) [15]: −7.12 % | HSS7 % Change from baseline LS Mean (SE) [15]: −31.19 (6.73) % | HSS7 Change difference for rilzabrutinib vs.placebo LS Mean (95% CI) [15]: −0.50 (−3.00, 2.00) | HSS7 Change from baseline LS Mean (SE) [15]: −4.76 (0.93) | HSS7 Postbaseline Mean (SD) [15]: 9.89 (5.69) | HSS7 % Change difference for rilzabrutinib vs.placebo LS Mean (95% CI) [16]: −6.27 % | HSS7 % Change from baseline LS Mean (SE) [16]: −30.30 (6.90) % | HSS7 Postbaseline Mean (SD) [16]: 9.94 (5.76) | HSS7 Postbaseline Mean (SD) (400 mg QPM, Week 6, Omalizumab-Naïve Population with Outlier Removed from Analysis): 9.94 (5.76) | HSS7 % Change difference for rilzabrutinib vs.placebo LS Mean (95% CI) [17]: −5.92 % | HSS7 % Change from baseline LS Mean (SE) [17]: −29.88 (6.15) % | HSS7 Change difference for rilzabrutinib vs.placebo LS Mean (95% CI) [17]: −0.53 (−2.87, 1.81) | HSS7 Change from baseline LS Mean (SE) [17]: −4.61 (0.88) | HSS7 Postbaseline Mean (SD) [17]: 10.38 (5.19) | HSS7 % Change difference for rilzabrutinib vs.placebo LS Mean (95% CI) [18]: −3.82 % | HSS7 % Change from baseline LS Mean (SE) [18]: −29.51 (6.35) % | HSS7 Postbaseline Mean (SD) [18]: 10.43 (5.27) | HSS7 Postbaseline Mean (SD) (400 mg QPM, Week 7, Omalizumab-Naïve Population with Outlier Removed from Analysis): 10.43 (5.27) | HSS7 % Change difference for rilzabrutinib vs.placebo LS Mean (95% CI) [19]: −1.88 % | HSS7 % Change from baseline LS Mean (SE) [19]: −30.95 (6.43) % | HSS7 Change difference for rilzabrutinib vs.placebo LS Mean (95% CI) [19]: 0.11 (−2.37, 2.59) | HSS7 Change from baseline LS Mean (SE) [19]: −4.64 (0.93) | HSS7 Postbaseline Mean (SD) [19]: 10.43 (5.63) | HSS7 % Change difference for rilzabrutinib vs.placebo LS Mean (95% CI) [20]: −2.41 % | HSS7 % Change from baseline LS Mean (SE) [20]: −30.42 (6.75) % | HSS7 % Change difference for rilzabrutinib vs.placebo LS Mean (95% CI) [21]: −10.31 % | HSS7 % Change from baseline LS Mean (SE) [21]: −34.23 (6.69) % | HSS7 Change difference for rilzabrutinib vs.placebo LS Mean (95% CI) [21]: −0.94 (−3.47, 1.59) | HSS7 Change from baseline LS Mean (SE) [21]: −5.06 (0.95) | HSS7 Postbaseline Mean (SD) [21]: 9.77 (5.51) | HSS7 Postbaseline Mean (SD) (400 mg QPM, Week 9, Omalizumab-Naïve Population): 9.82 (5.59) | HSS7 Postbaseline Mean (SD) (400 mg QPM, Week 9, Omalizumab-Naïve Population with Outlier Removed from Analysis): 9.82 (5.59)
